In ChEMBL document CHEMBL1136905, “Substituted isoxazole analogs of farnesoid X receptor (FXR) agonist GW4064” (Bioorg Med Chem Lett, 2009) one finds EC50 and %max data, which are given here for 29 molecules.

Assay [1] addresses T1, Bile acid receptor (Homo sapiens, UniProt Q96RI1).
T1 sequence (Q96RI1 whole entry): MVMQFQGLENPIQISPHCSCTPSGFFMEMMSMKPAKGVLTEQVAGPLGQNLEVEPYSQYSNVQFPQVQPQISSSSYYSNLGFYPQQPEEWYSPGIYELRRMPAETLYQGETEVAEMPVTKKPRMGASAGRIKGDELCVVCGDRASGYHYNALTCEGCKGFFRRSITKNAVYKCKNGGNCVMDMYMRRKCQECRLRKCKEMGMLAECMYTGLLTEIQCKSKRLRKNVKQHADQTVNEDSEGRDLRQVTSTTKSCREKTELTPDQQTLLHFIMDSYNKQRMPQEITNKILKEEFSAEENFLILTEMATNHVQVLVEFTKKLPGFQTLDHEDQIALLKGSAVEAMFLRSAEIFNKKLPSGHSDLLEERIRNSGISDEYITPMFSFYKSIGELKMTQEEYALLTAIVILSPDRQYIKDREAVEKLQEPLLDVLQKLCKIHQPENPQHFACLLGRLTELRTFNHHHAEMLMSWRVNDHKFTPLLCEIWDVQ
Put plainly: Agonist activity at human FXR assessed as SRC1 peptide interaction with receptor ligand binding domain by FRET assay.

Assay [2] concerns the target T2, Bile acid receptor (Homo sapiens) (UniProt Q96RI1).
T2 sequence (whole entry): T1 sequence (Q96RI1 whole entry)
Put plainly: Agonist activity at human FXR assessed as SRC1 peptide interaction with receptor ligand binding domain by FRET assay relative to GW-4064.

Assay [3] concerns the target T2, Bile acid receptor (Homo sapiens). Put plainly: Agonist activity at human FXR transfected in african green monkey CV1 cells by luciferase reporter gene transient transfection assay relative to GW-4064. It is filed as functional, cell-based. The settings on record: CV-1. On the technique in general: In a reporter assay the amount or activity of a reporter protein is the signal.

For assay [4], the target named is T1, Bile acid receptor. Put plainly: Agonist activity at human FXR transfected in african green monkey CV1 cells by luciferase reporter gene transient transfection assay. It is filed as functional, cell-based, CV-1.
Assay [5] addresses T1, Bile acid receptor. Put plainly: Agonist activity at human FXR assessed as SRC1 coactivator peptide recruitment by cell free FRET assay. It is filed as functional.

Regarding `CC(C)c1onc(COc2c(Cl)cc(Cl)cc2Cl)c1COc1ccc(/C=C/c2cccc(C(=O)O)c2)c(Cl)c1`, the EC50 was 58 nM in assay [1] and 200 nM in assay [4]. In addition, the %max was 101% in assay [2] and 68% in assay [3].
As to `CC(C)c1onc(COc2ccc(Cl)c(Cl)c2)c1COc1ccc(/C=C/c2cccc(C(=O)O)c2)c(Cl)c1`, the EC50 is 1100 nM in assay [1] and > 10000 nM in assay [5]. Besides, in assay [2], the %max was determined as 57%.
In the case of `CC(C)c1onc(COc2ccc(Cl)cc2)c1COc1ccc(/C=C/c2cccc(C(=O)O)c2)c(Cl)c1`, the EC50 was 450 nM in assay [1] and 1300 nM in assay [4]. The %max in assay [2] turned out to be 58%; in assay [3], 53%.
`CC(C)c1onc(COc2c(F)cc(F)cc2F)c1COc1ccc(/C=C/c2cccc(C(=O)O)c2)c(Cl)c1`: the results for the EC50 in assay [1] and in assay [4] were 110 nM and 300 nM, respectively. Besides, the %max in assay [2] turned out to be 106%; in assay [3], 95%.
The like results for `CC(C)c1onc(COc2cccc(Cl)c2Cl)c1COc1ccc(/C=C/c2cccc(C(=O)O)c2)c(Cl)c1` were, in that order, 480 nM, 630 nM, 82% and 38%.
The like results for `CC(C)c1onc(Cc2ccccc2)c1COc1ccc(/C=C/c2cccc(C(=O)O)c2)c(Cl)c1` were, in that order, 550 nM, 230 nM, 67% and 120%.
Consider `CC(C)c1onc(COc2ccc(Cl)cc2Cl)c1COc1ccc(/C=C/c2cccc(C(=O)O)c2)c(Cl)c1`, for which the EC50 in assay [1] was determined as 620 nM; in assay [4], 690 nM. The %max was 72% in assay [2] and 39% in assay [3].
The like results for `CC(C)c1onc(CSc2nnnn2C)c1COc1ccc(/C=C/c2cccc(C(=O)O)c2)c(Cl)c1` were, in that order, 930 nM, 2100 nM, 59% and 45%.
Regarding `CC(C)c1onc(CO)c1COc1ccc(/C=C/c2cccc(C(=O)O)c2)c(Cl)c1`, the results for the EC50 in assay [1] and in assay [4] were 7800 nM and > 10000 nM, respectively. The %max in assay [2] stood at 22%.
Turning to `CC(C)c1onc(CCCc2ccccc2)c1COc1ccc(/C=C/c2cccc(C(=O)O)c2)c(Cl)c1`, the EC50 in assay [1] was found to be 4400 nM; in assay [4], 1200 nM. Moreover, the values for the %max in assay [2] and in assay [3] were 44% and 68%, respectively.
The like results for `CC(C)c1onc(COc2cccc3ccccc23)c1COc1ccc(/C=C/c2cccc(C(=O)O)c2)c(Cl)c1` were, in that order, 960 nM, 1200 nM, 79% and 34%.
The like results for `CC(C)c1onc(CS(=O)(=O)c2c(Cl)cccc2Cl)c1COc1ccc(/C=C/c2cccc(C(=O)O)c2)c(Cl)c1` were, in that order, 150 nM, 390 nM, 100% and 68%.
On to `CC(C)c1onc(CCc2c(Cl)cccc2Cl)c1COc1ccc(/C=C/c2cccc(C(=O)O)c2)c(Cl)c1`, for which the EC50 was found to be 150 nM in assay [1] and 48 nM in assay [4]. In addition, the figures for the %max in assay [2] and in assay [3] were 105% and 104%, respectively.
On the same counts, the results for `CC(C)c1onc(COC(C)(C)C)c1COc1ccc(/C=C/c2cccc(C(=O)O)c2)c(Cl)c1` are 660 nM, 600 nM, 77% and 132%.
For `CC(C)c1onc(COc2cc(Cl)ccc2Cl)c1COc1ccc(/C=C/c2cccc(C(=O)O)c2)c(Cl)c1`, the EC50 is 1000 nM in assay [1] and 900 nM in assay [4]. Besides, the values for the %max in assay [2] and in assay [3] were 83% and 37%, respectively.
Regarding `CC(C)c1onc(COc2c(F)cccc2F)c1COc1ccc(/C=C/c2cccc(C(=O)O)c2)c(Cl)c1`, the EC50 is 2200 nM in assay [1] and 720 nM in assay [4]. Further, the %max in assay [2] came to 100%; in assay [3], 112%.
On to `CC(C)c1onc(CSc2c(Cl)cccc2Cl)c1COc1ccc(/C=C/c2cccc(C(=O)O)c2)c(Cl)c1`, for which the EC50 in assay [1] is 51 nM; in assay [4] it was 100 nM. Also, the %max in assay [2] came to 110%; in assay [3], 86%.
The like results for `Cc1cccc(C)c1OCc1noc(C(C)C)c1COc1ccc(/C=C/c2cccc(C(=O)O)c2)c(Cl)c1` were, in that order, 17 nM, 56 nM, 110% and 118%.
On the same counts, the results for `O=C(O)c1cccc(/C=C/c2ccc(OCc3c(-c4c(Cl)cccc4Cl)noc3C3CCCC3)cc2Cl)c1` are 560 nM, 240 nM, 81% and 75%.
The like results for `Cc1cc(Cl)cc(C)c1OCc1noc(C(C)C)c1COc1ccc(/C=C/c2cccc(C(=O)O)c2)c(Cl)c1` were, in that order, 130 nM, 110 nM, 99% and 66%.
Turning to `CC(C)c1onc(COc2c(F)cccc2Cl)c1COc1ccc(/C=C/c2cccc(C(=O)O)c2)c(Cl)c1`, the EC50 in assay [1] worked out at 74 nM; in assay [4], 290 nM. The values for the %max in assay [2] and in assay [3] were 103% and 121%, respectively.
`CC(C)c1onc(CNc2c(Cl)cncc2Cl)c1COc1ccc(/C=C/c2cccc(C(=O)O)c2)c(Cl)c1`: the concentration for a half-maximal effect (EC50) in assay [1] came to 400 nM; in assay [4], 420 nM. The %max in assay [2] was 68%; in assay [3], 31%.
On the same counts, the results for `CC(C)c1onc(COc2ccc3ccccc3c2)c1COc1ccc(/C=C/c2cccc(C(=O)O)c2)c(Cl)c1` are 930 nM, 2300 nM, 65% and 27%.
With `CC(C)c1onc(COc2ccccc2)c1COc1ccc(/C=C/c2cccc(C(=O)O)c2)c(Cl)c1`, the EC50 in assay [1] is 1100 nM; in assay [4], 1200 nM. The %max in assay [2] worked out at 55%; in assay [3], 27%.
On to `Cc1cccc(Cl)c1OCc1noc(C(C)C)c1COc1ccc(/C=C/c2cccc(C(=O)O)c2)c(Cl)c1`, for which the results for the EC50 in assay [1] and in assay [4] were 48 nM and 150 nM, respectively. The %max was 106% in assay [2] and 111% in assay [3].
The like results for `O=C(O)c1cccc(/C=C/c2ccc(OCc3c(-c4c(Cl)cccc4Cl)noc3C3CCC3)cc2Cl)c1` were, in that order, 410 nM, 140 nM, 67% and 100%.
On the same counts, the results for `CC(C)c1onc(CCc2ccccc2)c1COc1ccc(/C=C/c2cccc(C(=O)O)c2)c(Cl)c1` are 320 nM, 93 nM, 96% and 110%.
On the same counts, the results for `CC[C@H](C)c1onc(-c2c(Cl)cccc2Cl)c1COc1ccc(/C=C/c2cccc(C(=O)O)c2)c(Cl)c1` are 190 nM, 290 nM, 96% and 99%.
On to `CC[C@@H](C)c1onc(-c2c(Cl)cccc2Cl)c1COc1ccc(/C=C/c2cccc(C(=O)O)c2)c(Cl)c1`, for which the EC50 in assay [1] worked out at 105 nM; in assay [4], 93 nM. For the same molecule, the figures for the %max in assay [2] and in assay [3] were 100% and 105%, respectively.

The EC50 is the concentration giving half of the maximal effect.
